Blank lines part the entries; values can stand above or below the molecule they belong to.
Experiments:
[1] = target: T1, endogenous PPT1 (Homo sapiens, UniProt P50897); assay: PPT1 substrate assay, PC3 cells treated in situ; assay type: cell-based; settings: 4 h in situ; for reduction in 4-MUBO hydrolysis activity versus DMSO: 500 nM inhibitor
T1 construct: endogenous in cells; host or cells: PC3
T1 sequence (P50897 28-306): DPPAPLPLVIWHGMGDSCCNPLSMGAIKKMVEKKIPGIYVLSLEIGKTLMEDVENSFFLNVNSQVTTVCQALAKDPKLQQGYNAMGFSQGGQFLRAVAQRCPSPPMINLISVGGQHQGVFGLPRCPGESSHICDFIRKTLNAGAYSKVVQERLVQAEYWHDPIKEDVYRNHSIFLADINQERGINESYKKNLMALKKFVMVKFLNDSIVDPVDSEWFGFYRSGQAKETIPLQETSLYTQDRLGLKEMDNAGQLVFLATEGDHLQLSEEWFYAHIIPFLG
Method: PPT1 activity was assessed in vitro using a substrate assay adapted from previous studies (van Diggelen et al., Molecular genetics and metabolism 66, 240-244, 1999). Lysates from HEK293T cells transfected with an empty vector, or human PPT1 under a CMV promoter were adjusted to 1 mg/ml in PBS (25 μl), and then combined 1:1 with Mcllvain's phosphate/citrate buffer containing 0.375% (v/v) Triton-X 100 and 15 mM DTT (pH 5.0). This sample was pre-treated with inhibitor or DMSO for 30 minutes at 37° C., and 10 μl (5 μg protein) was used in the substrate assay as follows: Samples were diluted in a black 96-well plate (half-area) with 20 μl McIlvain's phosphate/citrate buffer (pH 5.0) containing 0.375% TX-100 and 15 mM DTT, as well as 0.64 mM MU-6S-Palm-PD-Glc and 0.1 U sweet almond glucosidase (Sigma). The reactions were incubated at 37° C. for 1 hour, quenched with 120 μl sodium bicarbonate buffer (pH 10.0), and hydrolysis by 4-MU fluorescence measured by excitement at […] and emission intensity at […]. 16 μg protein was used for analysis of native PC3 cells.
(§1) In situ inhibitor treatments of human cell lines were performed as described previously (Hsu et al., J Med Chem 56, 8270-8279, 2012). Briefly, PC3 or transfected HEK293T cells were grown to confluency in serum-containing media (RPMI or DMEM, respectively). The culture media was then removed and replaced with fresh media containing DMSO or inhibitor at the desired concentration and incubated for 4 hours in a tissue culture incubator (37° C., 5% CO2). Cells were then washed with PBS, harvested, washed with PBS once more, and lysed with a probe sonicator.
Compound 26 was then tested to see if it inhibited PPT1 activity using a substrate assay. […] In this assay, PPT1 hydrolyzes the substrate's palmitoyl thioester bond, and exogenous sweet almond β-glucosidase deglycosylates and frees the fluorophore, 4-methylumbelliferone (4-MU), which is measured to assess PPT1 activity.

[2] = target: T2, PPT1 (Homo sapiens, UniProt P50897); assay: ABPP-SILAC, PC3 cells treated in situ, Compound 39 probe; assay type: cell-based; parameters: endogenous in cells; host or cells: PC3; settings: 4 h in situ
T2 sequence (P50897 28-306): T1 sequence (P50897 28-306)
Method: as §1
Isotopically heavy- and light-labeled PC3 cells were treated with Compound 37 (1 μM) or DMSO for 4 h, respectively, lysed, and then treated Compound 39 (5 μM, 1 h). […] Accordingly, PPT1 was not detected in our previous ABPP-SILAC studies with FP-biotin (see FIG. 9). […]
To evaluate the broader selectivity of Compound 26 and Compound 34 across the SH class, heavy and light isotopically-labeled PC3 cells were treated with inhibitor [Compound 34 (1 μM); or Compound 26 (1 or 0.1 μM); 4 h) and DMSO, respectively, followed by ABPP-SILAC analysis with either the FP-biotin probe or the Compound 39 probe. […] Conversely, Compound 34 inhibited >90% of ABHD4 activity, as measured with either the FP-biotin probe or the Compound 39 probe, and cross-reacted with four additional targets—ABHD6, PAFAH2, PLA2G7, and PLA2G15.

[3] = target: T3, PPT1 (Mus musculus, UniProt O88531); assay: Inhibition by gel-based competitive ABPP in vivo (Compound 39 probe)
T3 construct: from tissue; host or cells: central and peripheral tissues (e.g. brain, testis) of C57BL6 mice
T3 sequence (O88531 28-306): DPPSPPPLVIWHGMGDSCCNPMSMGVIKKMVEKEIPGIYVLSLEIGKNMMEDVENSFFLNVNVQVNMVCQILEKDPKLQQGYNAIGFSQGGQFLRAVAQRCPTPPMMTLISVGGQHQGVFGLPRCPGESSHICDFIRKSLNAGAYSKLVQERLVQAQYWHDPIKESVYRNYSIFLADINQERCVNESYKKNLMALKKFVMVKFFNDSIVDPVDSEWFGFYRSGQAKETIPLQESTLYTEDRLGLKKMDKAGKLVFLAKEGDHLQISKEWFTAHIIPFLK
Method: Compound 26, Compound 34, and Compound 1 were administered across a dose range of 1-40 mg/kg to C57BL6 mice by intraperitoneal injection, and, after 4 hours, animals were sacrificed and tissues harvested for analysis by gel-based ABPP using the FP-Rh probe and the Compound 39 probe.

reduction in 4-MUBO hydrolysis activity versus DMSO [1]: not
Compound: O=C(ON1C(=O)C2CN(Cc3ccc(Oc4ccccc4)cc3)CCN2C1=O)N1CCOCC1 (stereo not drawn) [Compound 34, 1,3-dioxo-7-(4-phenoxybenzyl)hexahydroimidazo[1,5-a]pyrazin-2(3H)-yl morpholine-4-carboxylate]

inhibition at 1 µM ([2]; PC-3, 1 μM, Compound 39 probe (5 μM, 1 h)): > 90%
Compound: COc1ccc(N2CCN(C(=O)ON3C(=O)C4CN(Cc5ccc(Oc6ccccc6)cc5)CCN4C3=O)CC2)cc1 (stereo not drawn) [Compound 37, 1,3-dioxo-7-(4-phenoxybenzyl)hexahydroimidazo[1,5-a]pyrazin-2(3H)-yl 4-(4-methoxyphenyl)piperazine-1-carboxylate]

mPPT1 (in vivo), % @ 10 mg/kg (testis) ([3]; 10 mg/kg, testis, mouse): 100% @ 10 mg/kg | dose inhibiting PPT1 in vivo ([3]; i.p., 4 h, Compound 39 probe): ≥ 10 mg/kg
Compound: O=C(ON1C(=O)C2CN(C(=O)N3CCOCC3)CCN2C1=O)N1CCC(CCc2ccc(Cl)cc2)CC1 (stereo not drawn) [Compound 1, 7-(morpholine-4-carbonyl)-1,3-dioxohexahydroimidazo[1,5-a]pyrazin-2(3H)-yl 4-(4-chloro-phenethyl)piperidine-1-carboxylate]

mPPT1 (in vivo), % @ 5 mg/kg (testis) ([3]; 5 mg/kg, testis, mouse): 100% @ 5 mg/kg | blockade of PPT1 in vivo ([3]; 1-5 mg/kg i.p., 4 h, central and peripheral tissues): near-complete blockade | reduction in 4-MUBO hydrolysis activity versus DMSO [1]: substantial reductions | reduction in endogenous PPT1 activity ([1]; 500 nM, MU-6S-Palm-βD-Glc substrate assay): 90% | inhibition of PPT1 in PC3 cells ([2]; 1 or 0.1 μM, Compound 39 probe): ~90%
Compound: COc1ccc(N2CCN(C(=O)ON3C(=O)C4CN(CC5CCN(Cc6ccccc6)CC5)CCN4C3=O)CC2)cc1 (stereo not drawn) [Compound 26, 7-((1-benzylpiperidin-4-yl)methyl)-1,3-dioxohexahydroimidazo[1,5-a]pyrazin-2(3H)-yl 4-(4-methoxyphenyl)piperazine-1-carboxylate]
